“Also recorded” adds a separate entry of the source.
Legend:
[1] = Metabolic stability in liver microsomes (MLM); type: in vitro ADME, mice; conditions: 0.25 mg/mL protein; for half-life at 1 μM: mouse, liver microsomes, pH 7.4, 1 μM compound, read-out: T1/2 in mins (MLM); for Met Stab % (60 mins) MLM: percent remaining at 60 min, 1 μM compound, 1 mM NADPH
Protocol: Preparation of Potassium Phosphate Buffer, 50 mM (pH 7.4)
Potassium phosphate buffer (Kphos) was prepared by adding 0.647 g potassium phosphate monobasic (KH2PO4) and 3.527 g potassium phosphate dibasic (KH2PO4) to 400 mL of Milli-Q™ water. pH of the buffer was adjusted to 7.4 and volume was made up to 500 mL.
Preparation of Microsomes
Stock solutions of BRN2 inhibitors were prepared in DMSO at a concentration of 1 mM
Preparation of NADPH Solution
• Total Incubation volume: 100 μL • Compound concentration: 1 μM • Protein Concentration: 0.25 mg/mL • NADPH: 1 mM • Final DMSO contain: 0.1% • Number of replicates: 2 • Time points: 0, 5, 15, 30 and 60 min
From the above mix, 70 μL was added to individual wells of 96 well reaction plates and pre-incubated in a 37° C. water bath for 5 min. […] Reactions without NADPH and buffer controls (minus NADPH) at 0 min and 60 min were also incubated to rule out non-NADPH metabolism or chemical instability in the incubation buffer. All reactions were terminated using 100 μL of ice-cold acetonitrile containing internal standard at 0, 5, 15, 30 and 60 min.
Samples were monitored for parent compounds disappearance in MRM mode using LC-MS/MS.
The percent remaining of test compounds and positive control in each sample was determined by considering peak area ratio in the 0 minute sample as 100%. The Half-life of compounds in microsomes is calculated by formula: […]
In vitro intrinsic clearance (CL'int) (units in mL/min/kg) was calculated using the formula.
[formula] • For liver microsomes, scaling factor used was 45 mg microsomal protein per gm liver. • * Indicates liver weight (gm) which varies species wise. For mice the liver weights are 90 gm.

[2] = target: T1, BRN2 (Homo sapiens, UniProt P20265); experiment: BLI binding; conditions: result in words
T1 sequence (P20265 1-443): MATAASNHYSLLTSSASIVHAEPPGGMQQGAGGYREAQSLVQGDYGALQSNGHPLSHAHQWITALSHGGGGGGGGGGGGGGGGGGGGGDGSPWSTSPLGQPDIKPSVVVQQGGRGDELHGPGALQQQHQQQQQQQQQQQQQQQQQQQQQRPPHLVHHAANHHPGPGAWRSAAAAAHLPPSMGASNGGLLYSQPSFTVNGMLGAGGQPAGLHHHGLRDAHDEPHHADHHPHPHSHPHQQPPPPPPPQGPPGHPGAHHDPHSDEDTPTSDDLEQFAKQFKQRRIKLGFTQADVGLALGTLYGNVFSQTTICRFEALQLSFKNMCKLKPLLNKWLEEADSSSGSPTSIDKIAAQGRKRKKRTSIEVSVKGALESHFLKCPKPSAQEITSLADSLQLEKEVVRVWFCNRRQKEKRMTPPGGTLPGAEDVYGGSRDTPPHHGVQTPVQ

[3] = test system: 42D^ENZR cells; experiment: Cell proliferation, BRN2 expressing 42D cells (crystal violet); type: cell-based; conditions: about 72 hours; for Growth Specificity: 42D (express BRN2) versus 16D (no BRN2) cells, result in words; for IC50: 42D cells, proliferation, read-out: 42D IC50
Protocol: (§1) Step 3: Cell Proliferation
(§2) Plate 42DE^NZR (˜7000 cells per well) and 16D^CRPC (˜5000 cells per well) cells in 96 well plate with a volume of 100 μL per well. • 2. Next day 1 mL aliquots of media are combined with 3× the desired concentration of compounds. The aliquots are vortexed and 50 μL of each 3× concentration is added to the 100 μL of media in each well to give the ix desired concentration.
(§3) The following are the desired concentrations:
(§4) Approximately 72 hours later, 17 μL of 10% Glutaraldehyde is added to each well and plates are placed on a shaker for 20-30 minutes. • 4. Media is washed off the fixed cells by slow submersion in a container of water. Then the water is removed by tapping the plate upside down. • 5. 75 μL of Crystal Violet™ solution is added into the 96 well plates and placed on a shaker for ˜30 minutes. • 6. Media is washed off the fixed cells by repeated slow submersion in a container of water and the plates are allowed to dry over-night. • 7. Next day, 75 μL of Sorensen Solution is accurately pipetted into each well. The plates placed on a shaker for ˜30 minutes. • 8. Absorbance is measured in the plate at 590 nm.
There is a distinction in TABLES 1 and 2 difference between “Active” and “Specific” or “Specificity”.

[4] = test system: 16D^CRPC cells; experiment: Cell proliferation, 16D cells that do not express BRN2 (crystal violet); type: cell-based; conditions: for effect on 16D: result in words; for concentration above which 16D is affected: proliferation
Protocol: as §1, §2, §3
as §4, with “0, 10 nM, 100 nM, 500 nM, 1 μM, 2.5 μM, 5 μM, 10 μM, 15 μM, 20 μM, 30 μM. • 3. Approximately” for “Approximately”, “nm. Compounds that Show Specificity Towards 42DE^NZR Cells Vs 16D^CRPC Cells Progress to Step 4.” for “nm.”
(§5) In TABLES 1 and 2, in columns Met Stab % and T½, refers to compound's stability in MLM. There is a distinction in TABLES 1 and 2 difference between “Active” and “Specific” or “Specificity”. Some of the compounds were first tested to quantify inhibition of BRN2 transcriptional activity in a luciferase assay to determine BRN2 inhibition at 10 μM and 30 μM concentrations. […] Generally, compounds having low inhibitory activity were compounds with less than about ˜30% or activation at either concentration (i.e. 10 μM or 30 μM). Furthermore, some compounds that lacked specificity could also show off-target effects.

[5] = test system: BRN2 transcriptional activity; experiment: BRN2-luciferase reporter activity in 42D^ENZR cells; type: cell-based; conditions: 24 hours
From the text: Step 1: Reporter Activity
Decreased expression of luciferase protein is validated via western blot to confirm downregulation and avoid false positive molecules that inhibit luciferase protein activity and not BRN2-drive luciferase expression. Molecules are prioritized by their inhibition potency to measure direct interaction with BRN2 in Step 2.
as §5

half-life at 1 μM [1] [min]	Met Stab % (60 mins) MLM [1] [%]	BLI binding [2]	Compound	Growth Specificity [3]	IC50 [3] [µM]	effect on 16D [4]	concentration above which 16D is affected [4] [µM]	inhibition at 10 µM [5] [%]	inhibition at 30 µM [5] [%]
> 60	68	Positive binding	O=C1/C(=N\Nc2nc3ccccc3s2)Cc2cc(C(F)(F)F)ccc21 [7-108]	Specific to 42D cells until 10 μM; also recorded: Specific to 42D cells up to 10 μM			> 15		
44	40	No binding	CN1/C(=N/Nc2nc3ccccc3s2)C(=O)c2ccccc21 [7-114]	precipitates					
7	2	No binding	CN1C(=O)/C(=N/Nc2nc3ccccc3s2)c2ccccc21 [7-115]	Not specific					
> 60	64	No binding	O=C1/C(=N\Nc2nc3ccccc3s2)Nc2cc(Br)ccc21 [7-116]	Not specific					
27	18	No binding	CC(C)(C)OC(=O)c1ccc2c(c1)C(=O)/C(=N\Nc1nc3ccccc3s1)C2 [7-119]	Not specific					
24	17	No binding	Nc1ccc2c(c1)C/C(=N/Nc1nc3ccccc3s1)C2=O [7-120]	Not specific					
36	30	Positive binding	O=C1/C(=N\Nc2nc3ccccc3s2)Cc2cc(O)ccc21 [7-121]	Not specific					
10	1	No binding	CC(C)c1ccc2c(c1)C/C(=N/Nc1nc3ccccc3s1)C2=O [7-122]	Not specific					
25	18	No binding	O=C1/C(=N\Nc2nc3ccccc3s2)Nc2cc(F)ccc21 [7-123]	Not specific					
27	21	No binding	O=C1Nc2cc(F)ccc2/C1=N\Nc1nc2ccccc2s1 [7-124]	Not specific					
44	36	No binding	O=C1/C(=N\Nc2nc3ccccc3s2)Cc2c(Cl)cccc21 [7-125]	specific					
15	6	binding	O=C1/C(=N\Nc2nc3ccccc3s2)Cc2c(F)cccc21 [7-126]	specific					
23	14	No binding	CN(C)c1ccc2c(c1)C/C(=N/Nc1nc3ccccc3s1)C2=O [7-127]	Not specific					

Second part, the molecule before the results:

Compound	half-life at 1 μM [1] [min]	Met Stab % (60 mins) MLM [1] [%]	BLI binding [2]	Growth Specificity [3]	IC50 [3] [µM]	effect on 16D [4]	concentration above which 16D is affected [4] [µM]	inhibition at 10 µM [5] [%]	inhibition at 30 µM [5] [%]
Fc1ccc2c(c1)CC/C2=N/Nc1nc2ccccc2s1 [7-57]	8	0	Positive	Specific to 42D	10	no effect on 16D			
Fc1cccc2nc(N/N=C3/CCc4ccccc43)sc12 [7-65]	6	0		Specific to 42D	10	no effect on 16D			
c1ccc2sc(N/N=C3/CCc4ccncc43)nc2c1 [7-66]	8	1		Specific to 42D	10	no effect on 16D			
O=C1/C(=N\Nc2nc3ccccc3s2)Cc2ccc(Cl)cc21 [7-72]	17	8		Specific to 42D at low doses			> 15		
CC(C)Oc1ccc2c(c1)C/C(=N/Nc1nc3ccccc3s1)C2=O [7-73, (Z)-2-(2-(benzo[d]thiazol-2-yl)hydrazineylidene)-5-isopropoxy-2,3-dihydro-1H-inden-1-one]	26	19	Positive binding	Specific to 42D at low doses			> 15		
CC(C)Oc1ccc2c(c1)C(=O)/C(=N\Nc1nc3ccccc3s1)C2 [7-74, (Z)-2-(2-(benzo[d]thiazol-2-yl)hydrazineylidene)-6-isopropoxy-2,3-dihydro-1H-inden-1-one]	17	6	Positive binding	Specific to 42D at low doses			> 20		
c1ccc2c(c1)CC/C2=N\Nc1nc2ccccc2s1 [VPC-7]				42D not 16D				82.1	97.8
c1ccc2c(c1)CC/C2=N\Nc1nc2ccccc2[nH]1 [VPC-8]				42D and 16D non-specific				84.5	96.1
c1ccc2c(c1)CC/C2=N\Nc1ccc2ccccc2n1 [VPC-39]				non-specific				99	99.9

Source: patent US20250205204A1, “Transcription Factor Brn2 Inhibitory Compounds for Use as Therapeutics” (The University of British Columbia, priority 2021, published 2025)
